Experimental data reported in patent publication US12139487B2, “Compounds and uses thereof” (Foghorn Therapeutics Inc., priority 2022, dated 2024).

Legend:
[1] = system: parental MP41 and PKCi-resistant MP41 uveal melanoma cells; experiment: 7-day growth inhibition assay in parental and PKC inhibitor-resistant MP41 cells; format: cell-based
Description: Procedure: MP41 uveal melanoma cells were made resistant to the PKC inhibitor (LXS196; MedChemExpress), by long-term culture in growth media (see Table 9) containing increasing concentrations of the compound, up to 1 micromolar. After 3 months, sensitivity of the parental MP41 cells and the PKC inhibitor (PKCi)-resistant cells to the PKC inhibitor (LXS196) or the BRG1/BRM ATPase inhibitor (Compound B) was tested in a 7-day growth inhibition assay as described above in Example 6.

[2] = system: 92-1 uveal melanoma cells (subcutaneous tumors); experiment: 92-1 uveal melanoma xenograft tumor growth in nude mice; format: in vivo; details: 3 weeks
Description: Procedure: Nude mice (Envigo) were engrafted subcutaneously in the axillary region with 5×10^6 92-1 uveal melanoma cells in 50% Matrigel. Tumors were grown to a mean of ˜200 mm^3, at which point mice were grouped and dosing was initiated. Mice were dosed once daily by oral gavage with vehicle (20% 2-Hydroxypropyl-β-Cyclodextrin) or increasing doses of Compound C. Tumor volumes and body weights were measured over the course of 3 weeks, and doses were adjusted by body weight to achieve the proper dose in terms of mg/kg. At this time, animals were sacrificed, and tumors were dissected and imaged.

[3] = system: uveal melanoma, hematologic cancer, prostate cancer, breast cancer and Ewing's sarcoma cell lines versus other tested cell lines; experiment: Growth of uveal melanoma, hematological, prostate, breast cancer and Ewing's sarcoma cell lines with Compound B (day 3 and day 7); format: cell-based
Description: (§1) Procedure: Uveal melanoma cell lines (92-1, MP41, MP38, MP46), prostate cancer cell lines (LNCAP), lung cancer cell lines (NCI-H1299), and immortalized embryonic kidney lines (HEK293T) were plated into 96 well plates with growth media (see Table 9). […] Cells were incubated at 37 degrees Celsius for 3 days. After three days of treatment, the media was removed from the cells and 30 microliters of TrypLE (Gibco) was added to cells for 10 minutes. Cells were detached from the plates and resuspended with the addition of 170 microliters of growth media. Cells from two DMSO-treated control wells were counted, and the initial number of cells plated at the start of the experiment, were re-plated into fresh-compound containing plates for an additional four days at 37 degrees Celsius. At day 7, cells were harvested as described above. On day 3 and day 7, relative cell growth was measured by the addition of Cell-titer glo (Promega) and luminescence was measured on an Envision plate reader (Perkin Elmer). […] At the time of cell splitting on days 3 and 7, cells were split into new 96 well plates, and fresh compound was added four hours after re-plating.
Procedure: All cell lines described above in Example 4 were also tested as described above with Compound B. In addition, the following cell lines were also tested as follows. […]

[4] = system: uveal melanoma cell lines (92-1, MP41, MP38, MP46); experiment: Growth of uveal melanoma and non-small cell lung cancer cell lines (3 day, Cell-titer glow); format: cell-based; details: 3 days; 0 to 10 micromolar; FIG. 5
Description: Procedure: Uveal melanoma cell lines (92-1, MP41, MP38, MP46) and Non-small cell lung cancer cells (NCIH1299) were plated into 96 well plates with growth media (see Table 9). BRG1/BRM ATPase inhibitor, compound 67, was dissolved in DMSO and added to the cells in a concentration gradient from 0 to 10 micromolar at the time of plating. Cells were incubated at 37° C. for 3 days. After three days of treatment, cell growth was measured with Cell-titer glow (Promega), and luminescence was read on an Envision plate reader (Perkin Elmer).

[5] = system: uveal melanoma cell lines 92-1 and MP41; experiment: Comparison of Compound B with clinical PKC and MEK inhibitors in uveal melanoma cell lines (3 day growth); format: cell-based; details: vs LXS196 and Selumetinib
Description: Procedure: Uveal melanoma cell lines, 92-1 or MP41, were plated in 96 well plates in the presence of growth media (see Table 9). BAF ATPase inhibitor (Compound B), PKC inhibitor (LXS196; MedChemExpress), and MEK inhibitor (Selumetinib; Selleck Chemicals) were dissolved in DMSO and added to the cells in a concentration gradient from 0 to 10 micromolar at the time of plating. Cells were incubated at 37° C. for 3 days. After three days of treatment, cell growth was measured with Cell-titer glow (Promega), and luminescence was read on an Envision plate reader (Perkin Elmer).

[6] = system: uveal melanoma cell lines 92-1 and MP41; experiment: Comparison of Compound A with clinical PKC and MEK inhibitors in uveal melanoma cell lines (3 day growth); format: cell-based; details: vs LXS196 and Selumetinib
Description: Procedure: Uveal melanoma cell lines, 92-1 or MP41, were plated in 96 well plates in the presence of growth media (see […]). […] Cells were incubated at 37 degrees Celsius for 3 days. After three days of treatment, cell growth was measured with Cell-titer glow (Promega), and luminescence was read on an Envision plate reader (Perkin Elmer).

[7] = system: uveal melanoma and hematologic cancer cell lines versus other tested cell lines; experiment: Growth of uveal melanoma, hematological and other cancer cell lines with Compound A (Cell-titer glo, day 3 and day 7, GI50); format: cell-based; details: day 7
Description: as §1

BRM = target: T1, BRM (Homo sapiens, UniProt P51531); experiment: ATPase catalytic activity assay (ADP-Glo), BRM; format: biochemical; details: Table 10; for Ratio (BRG1 IC50 (μM) divided by BRM IC50 (μM)): ATPase assay, selectivity BRG1/BRM; for IC50: ATPase catalytic activity assay (ADP-Glo)
T1 construct: made in house; host or cells: High Five insect cells
T1 sequence (P51531 whole entry): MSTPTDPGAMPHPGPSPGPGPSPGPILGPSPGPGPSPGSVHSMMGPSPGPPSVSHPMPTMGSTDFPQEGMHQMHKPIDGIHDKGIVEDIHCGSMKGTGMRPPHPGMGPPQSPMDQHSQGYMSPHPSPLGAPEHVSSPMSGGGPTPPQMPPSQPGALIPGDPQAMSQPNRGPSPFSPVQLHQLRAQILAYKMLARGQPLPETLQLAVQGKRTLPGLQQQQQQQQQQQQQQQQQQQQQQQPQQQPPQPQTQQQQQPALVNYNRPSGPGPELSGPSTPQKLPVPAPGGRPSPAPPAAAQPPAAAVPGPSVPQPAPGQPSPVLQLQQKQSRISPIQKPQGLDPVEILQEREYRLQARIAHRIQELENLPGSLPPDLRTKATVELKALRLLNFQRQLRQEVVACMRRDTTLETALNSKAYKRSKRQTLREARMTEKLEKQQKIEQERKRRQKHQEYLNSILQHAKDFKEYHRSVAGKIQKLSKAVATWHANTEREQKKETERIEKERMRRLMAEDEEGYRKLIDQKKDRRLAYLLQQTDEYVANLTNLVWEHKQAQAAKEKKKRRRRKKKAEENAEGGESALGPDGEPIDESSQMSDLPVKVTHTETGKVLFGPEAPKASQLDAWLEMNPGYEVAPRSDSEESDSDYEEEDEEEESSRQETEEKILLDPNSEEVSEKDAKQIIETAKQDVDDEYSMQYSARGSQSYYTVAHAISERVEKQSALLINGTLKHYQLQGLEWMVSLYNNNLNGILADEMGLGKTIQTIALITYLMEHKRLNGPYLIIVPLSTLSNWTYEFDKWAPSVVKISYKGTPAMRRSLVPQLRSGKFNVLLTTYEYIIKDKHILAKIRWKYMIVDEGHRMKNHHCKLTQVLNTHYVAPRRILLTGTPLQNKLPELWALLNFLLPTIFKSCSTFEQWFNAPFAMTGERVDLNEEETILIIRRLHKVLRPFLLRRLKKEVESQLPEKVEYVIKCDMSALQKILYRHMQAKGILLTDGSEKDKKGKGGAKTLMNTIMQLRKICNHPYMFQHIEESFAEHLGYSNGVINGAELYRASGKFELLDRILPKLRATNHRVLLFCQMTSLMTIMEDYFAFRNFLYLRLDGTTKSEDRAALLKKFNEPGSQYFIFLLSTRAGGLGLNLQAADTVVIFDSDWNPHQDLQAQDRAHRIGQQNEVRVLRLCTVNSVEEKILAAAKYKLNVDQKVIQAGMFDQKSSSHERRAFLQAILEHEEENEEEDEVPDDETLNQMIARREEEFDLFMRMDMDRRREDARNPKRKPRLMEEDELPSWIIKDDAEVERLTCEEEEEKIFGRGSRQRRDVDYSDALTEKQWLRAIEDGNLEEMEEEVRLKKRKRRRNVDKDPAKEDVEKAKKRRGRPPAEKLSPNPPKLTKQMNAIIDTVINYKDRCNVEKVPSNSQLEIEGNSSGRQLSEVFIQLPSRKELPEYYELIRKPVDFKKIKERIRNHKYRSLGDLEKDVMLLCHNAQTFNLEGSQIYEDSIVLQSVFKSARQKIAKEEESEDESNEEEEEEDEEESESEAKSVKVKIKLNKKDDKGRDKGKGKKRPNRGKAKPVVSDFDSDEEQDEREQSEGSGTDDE
How it was run: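 Reaction holds 30 nM BRM, 20 nM salmon sperm DNA and 400 μM ATP in 20 mM Tris pH 8, 20 mM MgCl2, 50 mM NaCl, 0.1% Tween-20, 1 mM DTT. Incubated 1 h at room temperature. ADP formed is detected by ADP-Glo luminescence.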

BRG-1 = target: T2, BRG-1 (Homo sapiens, UniProt P51532); experiment: ATPase catalytic activity assay (ADP-Glo), BRG-1; format: biochemical; details: Table 10, read-out: BRG1 IC50
T2 construct: made in house; host or cells: High Five insect cells
T2 sequence (P51532 whole entry): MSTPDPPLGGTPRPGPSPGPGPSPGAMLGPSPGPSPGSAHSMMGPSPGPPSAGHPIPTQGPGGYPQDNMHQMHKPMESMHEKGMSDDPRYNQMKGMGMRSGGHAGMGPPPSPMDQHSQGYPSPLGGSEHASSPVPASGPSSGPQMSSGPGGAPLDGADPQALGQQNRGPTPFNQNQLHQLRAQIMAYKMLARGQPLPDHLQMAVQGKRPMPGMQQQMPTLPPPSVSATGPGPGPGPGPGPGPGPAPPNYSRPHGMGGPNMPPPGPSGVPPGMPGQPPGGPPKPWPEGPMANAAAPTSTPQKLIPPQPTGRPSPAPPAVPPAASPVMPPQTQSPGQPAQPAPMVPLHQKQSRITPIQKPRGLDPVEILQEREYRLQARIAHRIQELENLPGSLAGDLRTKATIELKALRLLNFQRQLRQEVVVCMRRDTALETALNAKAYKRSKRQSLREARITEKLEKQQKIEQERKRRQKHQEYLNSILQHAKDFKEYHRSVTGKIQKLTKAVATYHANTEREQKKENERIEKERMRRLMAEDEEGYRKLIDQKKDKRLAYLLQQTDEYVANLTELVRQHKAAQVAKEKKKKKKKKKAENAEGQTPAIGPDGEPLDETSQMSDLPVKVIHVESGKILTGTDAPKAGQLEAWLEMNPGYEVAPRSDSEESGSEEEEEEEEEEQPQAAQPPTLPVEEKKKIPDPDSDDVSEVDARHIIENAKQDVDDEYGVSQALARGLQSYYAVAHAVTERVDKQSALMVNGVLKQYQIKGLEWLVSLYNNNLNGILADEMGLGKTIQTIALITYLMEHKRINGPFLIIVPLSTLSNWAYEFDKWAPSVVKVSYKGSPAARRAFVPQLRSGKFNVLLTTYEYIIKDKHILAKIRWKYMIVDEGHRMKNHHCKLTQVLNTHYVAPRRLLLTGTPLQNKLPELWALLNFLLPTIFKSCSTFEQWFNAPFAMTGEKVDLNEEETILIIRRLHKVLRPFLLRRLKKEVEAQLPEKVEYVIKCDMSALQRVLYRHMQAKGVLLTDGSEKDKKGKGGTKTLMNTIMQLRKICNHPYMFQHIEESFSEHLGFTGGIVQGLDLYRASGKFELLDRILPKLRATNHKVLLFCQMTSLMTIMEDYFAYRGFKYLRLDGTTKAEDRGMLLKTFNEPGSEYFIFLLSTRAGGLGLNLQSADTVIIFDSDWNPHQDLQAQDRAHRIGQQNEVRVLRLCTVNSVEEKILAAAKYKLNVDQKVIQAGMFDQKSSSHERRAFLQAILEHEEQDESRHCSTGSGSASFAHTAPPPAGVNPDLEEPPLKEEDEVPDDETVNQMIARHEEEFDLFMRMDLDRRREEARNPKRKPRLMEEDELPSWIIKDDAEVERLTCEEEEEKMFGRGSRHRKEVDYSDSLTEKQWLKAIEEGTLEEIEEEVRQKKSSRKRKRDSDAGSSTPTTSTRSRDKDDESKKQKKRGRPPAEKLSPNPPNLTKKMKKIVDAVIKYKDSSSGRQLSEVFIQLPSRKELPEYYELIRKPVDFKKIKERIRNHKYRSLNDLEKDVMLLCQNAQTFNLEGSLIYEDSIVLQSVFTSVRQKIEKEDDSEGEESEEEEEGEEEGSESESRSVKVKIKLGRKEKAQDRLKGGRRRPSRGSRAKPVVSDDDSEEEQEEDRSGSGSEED
How it was run: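 Signal reflects ADP produced by the enzyme, quantified as luminescence after unused ATP is cleared and ADP is reconverted to ATP for the luciferase reaction; both steps run at room temperature, 40 and 60 min respectively.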

Ratio (BRG1 IC50 (μM) divided by BRM IC50 (μM)) (BRM) | IC50 (BRM) [nM] | IC50 (BRG-1) [nM] | Compound | further results
– | – | – | CC1(N)CCN(c2cccnc2NC(=O)c2nc(-c3ncccc3C(F)(F)F)cnc2N)CC1 [LXS196] | growth of PKCi-resistant cells relative to parental MP41 cell line ([1]; FIG. 7A): could tolerate growth at higher concentrations of LXS196
– | – | – | C[C@@H]1CN(c2cccc(-c3csc(NC(=O)CNC(=O)c4ccn(C(C)(C)C)c4)n3)n2)C[C@H](C)O1 [Compound C, 1-(tert-butyl)-N-(2-((4-(6-(cis-2,6-dimethylmorpholino)pyridin-2-yl)thiazol-2-yl)amino)-2-oxoethyl)-1H-pyrrole-3-carboxamide] | tumor response at the highest dose ([2]; 50 mg/kg, once daily oral gavage): tumor regression; tolerability / body weight ([2]; all treatments, FIG. 8C): well tolerated with no body weight loss observed; tumor growth inhibition ([2]; once daily oral gavage, increasing doses, FIG. 8A, 8B): tumor growth inhibition in a dose-dependent manner
– | – | – | CSCC[C@H](NC(=O)c1ccn(S(C)(=O)=O)c1)C(=O)Nc1nc(-c2cccc(-c3ccncc3)c2)cs1 [Compound B, (S)-1-(methylsulfonyl)-N-(4-(methylthio)-1-oxo-1-((4-(3-(pyridin-4-yl)phenyl)thiazol-2-yl)amino)butan-2-yl)-1H-pyrrole-3-carboxamide] | sensitivity of cell lines to BRG1/BRM inhibition (growth) ([3]; breast cancer and Ewing's sarcoma cell lines vs other tested cell lines, FIG. 3): more sensitive to BRG1/BRM inhibition than the other tested cell lines; duration of growth inhibition ([3]; breast cancer and Ewing's sarcoma cell lines, day 7): maintained through day 7; growth inhibition in uveal melanoma cell lines [4]: potent growth inhibition; growth inhibition compared with clinical PKC and MEK inhibitors ([5]; 3 days, FIG. 6A, 6B): more potent effects on growth inhibition; onset of growth inhibition compared with clinical PKC and MEK inhibitors [5]: faster onset of growth inhibition; sensitivity of PKCi-resistant cells relative to parental MP41 cells ([1]; FIG. 7B): more sensitive to Compound B than were the parental MP41 cells; growth inhibition of PKCi-resistant and parental cell lines ([1]; both PKCi-resistant and parental MP41, FIG. 7B): strong growth inhibition
– | – | – | CSCC[C@H](NC(=O)c1ccc(N)cc1)C(=O)Nc1nc(-c2cccc(-c3ccncc3)c2)cs1 [Compound A] | growth inhibition compared with clinical PKC and MEK inhibitors ([6]; 3 days, FIG. 2A, 2B): comparable growth inhibition; onset of inhibition compared with clinical PKC and MEK inhibitors [6]: faster onset of inhibition; duration of growth inhibition [7]: maintained through day 7
13.12 | 4.6 | 74.9 | COc1nc(C(F)F)ccc1-c1ccc2cnc(CNC(=O)c3cc(F)c4c(c3)S(=O)(=O)[C@@H](F)CCO4)c(F)c2n1 [Compound 136] | –
26.09 | 9.6 | 203 | COc1nscc1-c1ccc2cnc(CNC(=O)c3cc(F)c4c(c3)S(=O)(=O)[C@@H](F)CCO4)cc2n1 [Compound 288] | –
17.91 | 7.8 | 166 | COc1nc(C)ccc1-c1ccc2cnc(CNC(=O)c3cc(F)c4c(c3)S(=O)(=O)[C@@H](F)CCO4)cc2n1 [Compound 245] | –
15.83 | 8 | 126 | COc1nc([C@@](C)(F)C(F)F)ccc1-c1ccc2cnc(CNC(=O)c3cc(F)c4c(c3)S(=O)(=O)[C@@H](F)COC4)cc2n1 [Compound 251] | –
31.77 | 3.5 | 123 | COc1nc([C@H](F)CF)ccc1-c1ccc2cnc(CNC(=O)c3cc(F)c4c(c3)S(=O)(=O)[C@@H](F)CCO4)cc2n1 [Compound 98] | –
16.77 | 2 | 33.9 | O=C(NCc1cc2nc(N3CCOc4cc(C5CC5)cnc43)ccc2cn1)c1ccc2c(c1)S(=O)(=O)[C@@H](F)CCO2 [Compound 38] | –
12.99 | 1.1 | 16.9 | CCOc1ccnc2c1CCCN2c1ccc2cnc(CNC(=O)c3cc(F)c4c(c3)S(=O)(=O)[C@@H](F)CCO4)cc2n1 [Compound 4] | –
15.78 | 2.5 | 38.7 | O=C(NCc1cc2nc(N3CCOc4cc(N5C[C@@H](F)[C@H](F)C5)cnc43)ccc2cn1)c1cc(F)c2c(c1)S(=O)(=O)[C@@H](F)COC2 [Compound 50] | –
20.62 | 2.8 | 57.1 | Cc1ccc(-c2ccc3cnc(CNC(=O)c4cc(F)c5c(c4)S(=O)(=O)[C@@H](F)COC5)cc3n2)c(OC(F)F)n1 [Compound 73] | –
